Assays:
[1] = Deodorization effect on ammonia odor (dessicator, Kitagawa type gas detector); conditions: 250 mg base agent, 50 mg of 1% ammonia aqueous solution, 2.5 liter dessicator, 20 minutes; relative to blank 1
Procedure: Into a schale having a diameter of 4 cm was added 250 mg of the deodorant base agents obtained in Reference Examples 1 and 2, and 50 mg of a 1% ammonia aqueous solution was dropped thereon. The above-mentioned schale was allowed to stand still in a 2.5 liter dessicator for 20 minutes, then, the ammonia concentration (S) was measured by a Kitagawa type gas detector. Further, a schale containing no deodorant base agent was used as a blank 1 and a schale containing 250 mg of water added instead of a deodorant base agent was used as a blank 2, and the ammonia concentration was measured likewise. The ammonia concentration of the blank 1 was represented by C, and the deodorization rate was calculated according to the following formula. As Comparative Example 1, the deodorization effect on an ammonia odor was measured likewise in Example 1 using 250 mg of a solution obtained by dissolving 28 g (0.116 mol) of lauryl methacrylate which is a known deodorant base agent in 115 g of diethylene glycol monoethyl ether.
(Measurement Method of Deodorization Ratio)
Deodorization rate (%)=[(C−S)/C]×100
S: ammonia gas concentration after 20 minutes (ppm)
C: ammonia gas concentration of blank 1 (ppm)

[2] = Deodorization effect on mercaptan (sensory evaluation, filter paper in beaker); conditions: 150 mg base agent, 50 mg 0.0002% methylmercaptan in propylene glycol; after 20 minutes; grades 0 to 3 (initial odor = 3), average of three examiners
Procedure: Filter paper having a length of 7 cm and a width of 0.5 cm was impregnated with 150 mg of a deodorant base agent, subsequently, the same filter paper was impregnated with 50 mg of a 0.0002% solution of methylmercaptan in propylene glycol. The filter paper was placed in erected condition in a 3 liter beaker and wrapping film was covered on it and left for 20 minutes, then, a odor filling the beaker was subjected to sensory evaluation. The strength of the odor of methylmercaptan at the initial was defined as 3, and odors after 20 minutes were evaluated by three examiners based on four grades from 0 to 3, and the average value thereof was calculated and the first decimal was rounded off to give a deodorization effect.

[3] = Deodorization effect on lower fatty acid (sensory evaluation); conditions: 150 mg of 1% aqueous lower fatty acid mixture 20/60/20; after 20 minutes; grades 0 to 3 (initial odor = 3), average of three examiners
[4] = acid dissociation index (pK1, pK2) at 25° C.; type: physicochemical; conditions: for first acid dissociation index / second acid dissociation index: for the dibasic acid, source of value not given; for Difference (pK2 - pK1): 25° C., method (D)
Procedure: The organic dibasic acid used as a deodorant in the present invention is selected from organic dibasic acids and/or salts thereof having a difference between the first acid dissociation index and the second acid dissociation index of 1.7 or more at 25° C. (hereinafter, described as deodorant organic dibasic acid). The acid dissociation index can be measured, for example, by a method (A) described in The Journal of Physical Chemistry vol.
Further, previously obtained data may also be used. […] Further, the organic dibasic acid can be selected based on data bases (D) such as pKa BASE of Compudrug, and the like. The first acid dissociation index and the second acid dissociation index of the organic dibasic acid may be determined by any of the methods (A) to (D).

[5] = 25° C.; method (D), data bases such as pKa BASE of Compudrug; cited from earlier work

| first acid dissociation index [4] | second acid dissociation index [4] | Difference (pK2 - pK1) [4] | difference of acid dissociation index ([4]; given in running text) | SMILES | Deodorization rate [1] [%] | Evaluation of odor [2] | Evaluation of odor [3] | First acid dissociation index (pK1) [5] | Second dissociation index (pK2) [5] |
| --- | --- | --- | --- | --- | --- | --- | --- | --- | --- |
|  |  |  |  | O=C(O)[C@H]1CCCC[C@H]1C(=O)O [Deodorant base agent 1, cis-cyclohexane-1,2-dicarboxylic acid] | 79 | 2 | 1 |  |  |
|  |  |  |  | C=C(C)C(=O)OCCCCCCCCCCCC [Comparative Example 1, lauryl methacrylate, reference compound] | 10 | 3 | 2 |  |  |
| 4.16 | 6.23 |  |  | O=C1OC(=O)C2C3C=CC(C3)C12 (centres unmarked) [Deodorant base agent 2, 5-norbornene-2,3-dicarboxylic acid anhydride] | 88 | 1 | 1 |  |  |
|  |  | 3.36 |  | CC1CCCCC1(CC(=O)O)CC(=O)O (centres unmarked) [2-methylcyclohexyl-1,1-diacetic acid] |  |  |  | 3.53 | 6.89 |
|  |  | 2.85 |  | CCC(C(=O)O)C(=O)O [2-ethylmalonic acid] |  |  |  | 2.96 | 5.81 |
|  |  | 2.60 |  | CC(C)(CC(=O)O)CC(=O)O [3,3-dimethylglutaric acid] |  |  |  | 3.85 | 6.45 |
|  |  | 3.88 |  | CC(C)(C)C(C)(CC(=O)O)CC(=O)O [3-t-buthyl-3-methylglutaric acid] |  |  |  | 3.61 | 7.49 |
|  |  | 2.83 |  | CCC(C(=O)O)C(CC)C(=O)O (centres unmarked) [2,3-diethylsuccinic acid] |  |  |  | 3.63 | 6.46 |
| 4.00 | 5.25 |  | less than 1.7 | O=C(O)CCC(=O)O [Comparative Example 2, succinic acid, reference compound] | 33 | 3 | 2 |  |  |
|  |  | 3.06 |  | CCC(CC(=O)O)(CC(=O)O)c1ccccc1 [3-ethyl-3-phenylglutaric acid] |  |  |  | 3.89 | 6.95 |
|  |  | 6.73 |  | CC(C)C(C(=O)O)(C(=O)O)C(C)C [2,2-diisopropylmalonic acid] |  |  |  | 2.12 | 8.85 |
|  |  | 2.90 |  | CCC(C(=O)O)C(C)C(=O)O (centres unmarked) [2-ethyl-3-methylsuccinic acid] |  |  |  | 3.20 | 6.10 |
|  |  | 2.79 |  | O=C(O)CC(CC(=O)O)(c1ccccc1)c1ccccc1 [3,3-diphenylglutaric acid] |  |  |  | 4.02 | 6.81 |
|  |  | 2.59 |  | CC1CCCC(CC(=O)O)(CC(=O)O)C1 (centres unmarked) [3-methylcyclohexyl-1,1-diacetic acid] |  |  |  | 3.49 | 6.08 |
|  |  | 5.32 |  | CCCC(CCC)(C(=O)O)C(=O)O [2,2-dipropylmalonic acid] |  |  |  | 1.86 | 7.18 |

Source: patent publication US6780403B1, “Deodorants” (Kao Corporation, priority 1999, dated 2004)
